The test system of data set [1] is Sprague-Dawley rats fed fructose-rich diet. The experiment in a line: Fructose-rich diet rat model (Reaven's model): blood pressure, serum triglycerides, insulin, body weight. Type of data set: in vivo. The settings on record: for effect on serum insulin levels: FIG. 5. The procedure: In the present study, the effects of CPSSA and captopril on blood pressure, as well as serum levels of triglycerides and insulin, were compared. RESULTS
Model Sprague-Dawley male rates, five rats/group, 220–240 g body weight, were fed with a fructose-rich diet for three weeks, followed by two weeks of treatment with either CPSSA or captopril predissolved in the drinking water in doses of CPSSA of 40 and 57 mg/kg and 80 mg/kg captopril, together with the fructose-rich diet. The control group was fed only the fructose-rich diet. Measurements of body weight, blood pressure, serum levels of triglycerides and insulin were conducted at 0, 3, and 5 weeks into the treatment.

Data set [2] deals with T1, papain (Carica papaya, UniProt P00784).
T1 sequence (P00784 134-345): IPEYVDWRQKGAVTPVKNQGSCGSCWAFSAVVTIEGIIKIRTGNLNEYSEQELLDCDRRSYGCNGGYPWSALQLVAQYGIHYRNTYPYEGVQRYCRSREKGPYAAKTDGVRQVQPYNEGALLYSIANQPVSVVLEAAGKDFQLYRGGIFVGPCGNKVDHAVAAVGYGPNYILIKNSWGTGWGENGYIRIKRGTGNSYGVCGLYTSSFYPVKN
Kind of data set: SH modification of papain (residual enzyme activity, benzoyl arginine-p-nitro anilide hydrolysis). In kind it is biochemical. The procedure:
CPSSA (0–5 mM) modification of activated and gel-filtered papain was conducted at room temperature in 50 mM sodium acetate, 2 mM EDTA pH 6.1. The inhibited papain was reactivated with 5 mM reduced glutathione.
Activated papain was mixed with various concentrations of CPSSA for 10 minutes at room temperature in 50 mM sodium acetate, 2 mM EDTA buffer, pH 6.5. The residual enzyme activity was measured by monitoring the rate of hydrolysis of the substrate benzoyl arginine-p-nitro anilide at 382 nm.

Data set [3] has as its target T2, angiotensin converting enzyme (Homo sapiens, UniProt P12821).
T2 construct: from tissue
The experiment in a line: Angiotensin converting enzyme activity in vitro in reference serum (Carmel et al 1979). Type of data set: biochemical. Particulars: serial dilutions added to a reference serum; FIG. 2. The procedure:
The activity of angiotensin-converting enzyme was assayed according to Carmel et al (1979).
In order to determine if CPSSA reacts in a similar way to captopril, which inhibits the activity of angiotensin converting enzyme, serial dilutions of CPSSA were prepared.

The mark [4] stands for this setting: two weeks in drinking water, CPSSA 40 and 57 mg/kg, captopril 80 mg/kg.

T2 sequence (P12821 30-1232 limits assumed): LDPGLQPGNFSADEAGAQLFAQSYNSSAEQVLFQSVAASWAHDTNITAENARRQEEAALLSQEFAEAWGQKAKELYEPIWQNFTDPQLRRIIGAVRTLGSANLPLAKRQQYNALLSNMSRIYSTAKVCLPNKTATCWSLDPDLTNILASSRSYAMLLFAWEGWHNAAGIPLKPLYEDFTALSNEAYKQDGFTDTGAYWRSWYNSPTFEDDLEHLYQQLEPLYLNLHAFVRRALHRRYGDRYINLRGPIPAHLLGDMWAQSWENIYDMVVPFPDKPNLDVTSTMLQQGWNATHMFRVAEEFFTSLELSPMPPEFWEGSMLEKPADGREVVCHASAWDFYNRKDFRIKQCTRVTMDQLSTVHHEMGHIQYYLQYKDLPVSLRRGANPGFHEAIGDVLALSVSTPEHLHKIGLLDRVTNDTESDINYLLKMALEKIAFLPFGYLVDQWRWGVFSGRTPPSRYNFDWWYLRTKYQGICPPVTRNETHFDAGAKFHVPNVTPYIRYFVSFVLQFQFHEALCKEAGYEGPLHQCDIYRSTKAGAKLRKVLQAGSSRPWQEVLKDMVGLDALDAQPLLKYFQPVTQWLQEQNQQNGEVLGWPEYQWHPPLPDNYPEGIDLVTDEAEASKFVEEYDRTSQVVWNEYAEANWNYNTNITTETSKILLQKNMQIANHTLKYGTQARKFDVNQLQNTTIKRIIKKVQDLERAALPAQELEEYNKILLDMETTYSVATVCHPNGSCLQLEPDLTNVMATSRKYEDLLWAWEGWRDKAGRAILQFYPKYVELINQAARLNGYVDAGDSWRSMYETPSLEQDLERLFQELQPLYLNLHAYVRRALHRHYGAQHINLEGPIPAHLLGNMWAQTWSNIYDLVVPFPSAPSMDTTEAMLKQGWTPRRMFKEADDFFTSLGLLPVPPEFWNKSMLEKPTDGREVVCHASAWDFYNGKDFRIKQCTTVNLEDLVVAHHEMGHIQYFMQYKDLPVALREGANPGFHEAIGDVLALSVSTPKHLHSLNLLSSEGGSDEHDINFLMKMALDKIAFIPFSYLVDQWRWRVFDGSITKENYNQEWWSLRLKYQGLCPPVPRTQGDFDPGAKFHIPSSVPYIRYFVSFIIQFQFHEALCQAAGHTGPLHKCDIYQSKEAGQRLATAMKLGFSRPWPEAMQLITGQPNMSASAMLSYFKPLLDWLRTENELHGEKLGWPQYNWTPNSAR

Regarding `C[C@H](CS)C(=O)N1CCC[C@H]1C(=O)O` [captopril, D-3-mercapto-2-methylpropanoyl-L-proline], in data set [1] (setting [4]), the “effect on body weight” value was “No effects on body weight” and the “effect on serum insulin levels” value is given as “decreased serum insulin levels to normal values”.
For `C=CCSSC[C@H](C)C(=O)N1CCC[C@H]1C(=O)O` [CPSSA, S-allylmercaptocaptopril], in data set [2] (5 mM reduced glutathione), the “reactivation of inactivated papain” value is “could be restored by reduced glutathione”. The “papain enzyme activity after incubation” value in data set [2] (10 minutes at room temperature, 50 mM sodium acetate, 2 mM EDTA, CPSSA 0-5 mM, FIG. 1) was “significant decrease of enzyme activity”. Besides, the “degree of inhibition of papain” value in data set [2] (various concentrations of CPSSA, FIG. 1) is given as “concentration dependent”. Moreover, the “activity in decreasing levels of triglycerides compared with captopril” value in data set [1] (CPSSA 40 and 57 mg/kg vs captopril 80 mg/kg, FIG. 4) was “more active than captopril”. Moreover, in data set [1] (setting [4]), the “effect on body weight” value was “No effects on body weight” and the “effect on serum insulin levels” value is on record as “decreased serum insulin levels to normal values”. In addition, the “effect on blood pressure” value in data set [1] (two weeks in drinking water, CPSSA 40 and 57 mg/kg, captopril 80 mg/kg, FIG. 3) is recorded as “significantly decreased blood pressure”. The “effect on serum levels of triglycerides” value in data set [1] (two weeks in drinking water, CPSSA 40 and 57 mg/kg, captopril 80 mg/kg, FIG. 4) is “reduced the serum levels of triglycerides”. In data set [3], the “ACE inhibition profile compared with captopril” value was “essentially does not differ from the inhibition profile obtained with captopril” and the “inhibition of angiotensin converting enzyme activity” value is reported as “concentration dependant”.

The values are drawn from US7241902B2, “Allylmercaptocaptopril compounds and uses thereof” (Yeda Research and Development Co. Ltd., priority 2001, dated 2007).
